The source of these data is patent US8697653B2, “Microparticle formulation for pulmonary drug delivery of anti infective molecule for treatment of infectious diseases” (priority 2010, dated 2014).

Data set [1] deals with MRC5, L929 and A549 cell lines. Put plainly: In vitro cytocompatibility assay, all cell lines evaluated. The note with it: all the different cell lines evaluated. The format is cell-based. The method, then: The assay was carried out based on the reference Journal of Biomedical Materials Research, 2009, […], 281-292. This assay was performed to evaluate the cytocompatibility of the formulation of Example 9 Method A with the relevant cell lines and standard cells which are specified by the regulatory agencies. Cell density: 10,000/well for MRC 5 and […], and 3000/well for A549 Time points: 24 hours and 48 hours. The toxicological evaluation was done using The CellTiter 96 Aqueous One Solution Assay by Promega (Cat. no: G3582). The assay is a standard colorimetric method for determining the number of viable cells in proliferation or cytotoxicity assays. The MTS used in the assay is bioreduced by cells into a colored formazan product that is soluble in tissue culture medium. The quantity of formazan product as measured by the amount of 490 nm absorbance is directly proportional to the number of living cells in culture. […] The ELISA 96-well plate was then subjected to absorbance recordings at 490 nm (450-540 nm) with a 96-well plate reader. The average 490 nm absorbance from the “no-cell” control was subtracted from all other absorbance values and the corrected absorbance was utilized for further calculations. (Background absorbance from “no-cell” control is typically 0.2 to 0.3 absorbance units after 4 hours of incubation).

Data set [2] is described as follows: Pilot in vivo lung deposition study (Example 20). On the set-up: species or system Guinea pigs. The conditions noted are these: guinea pig, lungs, 10 mg/kg aerosolized, passive breathing, read-out: compound of formula I deposited. The procedure:
(§1) The assay was done as reported in The AAPS Journal, 2005, 7 (1), E20-E41.
A pilot in vivo lung deposition study was carried out as per the reference mentioned. Guinea pigs were divided in three groups. Group 1 received formulation of Example 9 Method A, group 2 received unformulated compound of formula I and group 3 was untreated (naïve group). 10 mg/kg of the formulation was aerosolized and the animals were allowed to breathe passively. Following administration of the formulation of Example 9 Method A the animals were sacrificed at 30 minutes time point. The lungs were collected and analyzed by HPLC.

Data set [3] concerns rat alveolar macrophages. Put plainly: In vitro macrophage uptake assay. Format: cell-based. The procedure: The assay was carried out based on the reference Respiratory Research, 2009, 10, 44.
Bronchoalveolar lavage washings from the rats were taken after appropriate ethical permission. Sterile warmed saline was introduced into the lung and then removed by suction. Bronchoalveolar lavage fluid was transported on icepacks (usually 100 to 200 mL of bronchoalveolar lavage fluid per donor is desired). The fluid was subjected to centrifugation at 250 g for 10 minutes and the cells were collected. Pooled the cell pellets by resuspending the cells in a total of 10 mL of HBSS. 100 μL aliquot was removed and stained with Wright-Giemsa stain to do a differential cell count. The cell count was adjusted and plated the cells in macrophage culture medium (HAM F12 medium, Amimed, Switzerland). 0.5 mL of the cell suspension was added to each of the 6 well tissue culture plates with 0.5 mL of the macrophage culture medium. The cells were incubated for 24 hours at 37° C. and 5% CO2. Cell adherence and cell growth was evaluated and treated with the formulation of Example 9 Method A tagged with sulforhodamine dye. Post treatment the cells were evaluated for fluorescence. This fluorescence results for selective uptake of the formulation by the alveolar macrophages.

Data set [4] in a line: Pulmonary bioavailability, nose-only exposure lung deposition (Example 21). Format: in vivo, Guinea pigs. The note with it: 3 mg/kg. The method, then:
as §1
A nose-only exposure in vivo lung deposition study was carried out as per the reference mentioned. Guinea pigs were divided in two groups. Group 1 received unformulated compound of formula I (3 mg/kg) and group 2 received formulation of Example 9 Method A (3 mg/kg). The unformulated compound of formula I and formulation of Example 9 Method A were aerosolized and the nose-only exposure was carried out using jet nebulizer wherein the nebulization period was one hour. Following aerosol administration, the animals were sacrificed at 1 hour, 2 hours, 6 hours, 12 hours and 24 hours post aerosol exposure and the lungs were collected and analyzed to quantitate the amount of compound of formula I (ng/g) deposited in the lung by LC-MS.

Data set [5] is described as follows: Physical properties: solubility in solvents and water. The note with it: chloroform, ethyl acetate, methanol, water. Format: physicochemical. The method, then: • Column: Eurospher RP-18, (3μ, 4.6×125 mm) • Solvent system: Gradient (0% acetonitrile to 100% in 15 minutes against water, followed by 100% acetonitrile for 5 minutes) • Flow rate: 1 mL/minute • Detection (UV): 245 nm • Retention time: compound of formula I (12 to 13 minutes) Physical & Spectral properties of the compound of formula I: • Appearance: White powder • Melting point: 240° C.

Data set [6] can be described thus: Dose scheduling, nose-only exposure lung deposition (Example 23). The format is in vivo, Guinea pigs. The conditions noted are these: 3 mg/kg, regimen not stated. The method, then:
To evaluate dose scheduling of the formulation of Example 9 Method A The assay was done as reported in The AAPS Journal, 2005, 7 (1), E20-E41.
(§2) A nose-only exposure in vivo lung deposition study was carried out as per the reference mentioned. Guinea pigs were divided in three groups. Group 1 received unformulated compound of formula I (3 mg/kg); group 2 received formulation of Example 9 Method A (3 mg/kg) once a day for one day and group 3 received formulation of Example 9 Method A (3 mg/kg) twice a day for one day. The unformulated compound of formula I and formulation of Example 9 Method A were aerosolized and the nose-only exposure was carried out using jet nebulizer. The animals were sacrificed and the lungs were collected and analyzed to quantitate the amount of compound of formula I (ng/g) deposited in the lung by LC-MS. LC-MS conditions are as provided in Tables 15, 16 and 17 of Example 21.

A short description of data set [7]: Cumulative accumulation after once a day dosing for 5 days (Example 22). The arrangement: species or system Guinea pigs. The note with it: guinea pig, in vivo; lung, 3 mg/kg, 1 hour nebulization everyday for five consecutive days, sacrificed on 6th day; read-out: Compound of formula I deposited. The procedure:
Evaluation of cumulative accumulation of formulation of Example 9 Method A after once a day dosing for 5 days for nebulization exposure period of 1 hour/day The assay was done as reported in The AAPS Journal, 2005, 7 (1), E20-E41.
as §2, with “in two” for “in three”, “(3 mg/kg) and” for “(3 mg/kg);”, “(3 mg/kg).” for “(3 mg/kg) once a day for one day and group 3 received formulation of Example 9 Method A (3 mg/kg) twice a day for one day.”, “jet nebulizer wherein the nebulization period was one hour everyday for five consecutive days and the” for “jet nebulizer. The”, “sacrificed on 6th day. The” for “sacrificed and the”

Data set [8] in a line: Estimation of solubility in simulated lung fluid (SLF, pH 7.4) by HPLC. The note with it: fassgf or other biorelevant, thermodynamic from solid. Format: physicochemical. The method, then:
SLF was prepared by method based on Respiratory Physiology & Neurobiology, 2008, 162, 73-79. 9 g of sodium chloride, 0.220 g of calcium chloride and 6.5 g of lactose were dissolved in 1000 mL of water. The pH of the resultant solution was adjusted to 7.4. Solubility of compound of formula I in SLF was measured at two temperatures, 45° C. and 60° C. For this, 1 mg of compound of formula I was added to 3 mL of SLF (in duplicates) and after vortexing for few seconds was incubated in water bath set at the required temperatures. Solubility was measured at one hour intervals for three hours. The solution was filtered through 0.22 μm filter and the filtrate was injected on HPLC. Solubility was calculated with respect to appropriate calibration curve.

The conditions of data set [9]: Antimicrob. Agents Chemother., 1999, 37, 281-286; cited from earlier work.

The structures appear in SMILES notation.

The solubility is how much of the substance goes into solution per volume. Take `C=C(NC(=O)C(=C)NC(=O)c1csc(C2=NC3c4csc(n4)C4NC(=O)c5csc(n5)C(C(C)(O)C(C)O)NC(=O)C5CSC(=N5)/C(=C\C)NC(=O)C(C(C)O)NC(=O)c5csc(n5)C3(CC2)NC(=O)C(C)NC(=O)C(=C)NC(=O)C(C)NC(=O)C(C(C)C)NC2C=Cc3c(C(C)O)cc(nc3C2O)C(=O)OC4C)n1)C(N)=O` (stereo not shown) [Compound of formula I]: the “Cytotoxicity (in words)” value in data set [1] was “exhibited cytotoxicity”. Besides, in data set [2], the concentration at 30 min came out at 0 ng/g. In addition, the “Uptake by alveolar macrophages (in words)” value in data set [3] is on record as “does not show active uptake”. In addition, the “Compound concentration in alveolar macrophages” value came out at 2010 ng/mL in [3] (30 minutes), 2010 ng/mL in data set [3] (60 minutes) and 1990 ng/mL in [3] (120 minutes). Besides, the “Ability to reach the lungs on nebulization (in words)” value in data set [4] (nose-only nebulization) is recorded as “unable to reach the lungs”. In data set [4] (guinea pig, in vivo, lung, nose-only, 1 hour nebulization, 1 hour post exposure, read-out: Compound of formula I deposited), the concentration at 1 h came to 1 ng/g. For the same compound, the concentration at 2 h in [4] (guinea pig, in vivo, lung, nose-only, 1 hour nebulization, 2 hours post exposure, read-out: Compound of formula I deposited) was 1 ng/g. Moreover, the concentration at 6 h in data set [4] (guinea pig, in vivo, lung, nose-only, 1 hour nebulization, 6 hours post exposure, read-out: Compound of formula I deposited) was found to be 1 ng/g. Moreover, the concentration at 12 h in data set [4] (guinea pig, in vivo, lung, nose-only, 1 hour nebulization, 12 hours post exposure, read-out: Compound of formula I deposited) was 1 ng/g. Moreover, in [4] (guinea pig, in vivo, lung, nose-only, 1 hour nebulization, 24 hours post exposure, read-out: Compound of formula I deposited), the concentration at 24 h is 1 ng/g. The “Solubility (in words)” value in data set [5] was “Soluble in chloroform, ethyl acetate, methanol and insoluble in water”. For the same compound, the “Compound of formula I deposited” value in data set [6] is listed as 0 ng/g. Besides, in data set [7], the concentration at 6 day stood at 1 ng/g. In addition, the solubility at 1 h in [8] (SLF pH 7.4, 45° C.) was 1.3 µg/mL; in data set [8] (SLF pH 7.4, 60° C.) it was 0.6 µg/mL. Besides, the solubility at 2 h in data set [8] (SLF pH 7.4, 45° C.) is 0.9 µg/mL; in data set [8] (SLF pH 7.4, 60° C.), 0.7 µg/mL. The solubility at 3 h in data set [8] (SLF pH 7.4, 45° C.) is 1.2 µg/mL; in data set [8] (SLF pH 7.4, 60° C.), 1.3 µg/mL.
Take `CN[C@H](CC(C)C)C(=O)N[C@H]1C(=O)N[C@@H](CC(N)=O)C(=O)N[C@H]2C(=O)N[C@H]3C(=O)N[C@H](C(=O)N[C@H](C(=O)O)c4cc(O)cc(O)c4-c4cc3ccc4O)[C@H](O)c3ccc(c(Cl)c3)Oc3cc2cc(c3O[C@@H]2O[C@H](CO)[C@@H](O)[C@H](O)[C@H]2O[C@H]2C[C@](C)(N)[C@H](O)[C@H](C)O2)Oc2ccc(cc2Cl)[C@H]1O` [Vancomycin]: the “Lung concentrations as % of the plasma concentrations” value in data set [9] is reported as 20%.
